According to US20220023386A1, “METHOD FOR THE TREATMENT OR PREVENTION OF OSTEOARTHRITIS” (Chondropeptix B.V., priority 2016, published 2022):

How the values were obtained:
Format in all cases: cell-based, human
[1] = test system: OA articular chondrocytes; test: Expression of OA chondrocyte phenotype marker genes by RT-qPCR after peptide exposure; set-up: key: [+] denotes a significantly increased expression of chondrogenic marker BAPX1/NKX3.2 or a decreased expression of OA chondrocyte phenotypic markers ALP, MMP13, ADAMTS5, COX2, COL10A and RUNX2 in OA articular chondrocytes, in comparison to untreated OA articular chondrocytes.; [−] denotes the absence of a significant effort or a significantly decreased expression of chondrogenic marker BAPX1/NKX3.2 or an increased expression of OA chondrocyte phenotypic markers ALP, MMP13, ADAMTS5, COX2, COL10A and RUNX2 in OA articular chondrocytes, in comparison to untreated OA articular chondrocytes; conditions: vs untreated OA articular chondrocytes
[2] = test system: OA articular chondrocytes; test: as above; set-up: key to ADAMTS5 expression: [+] denotes a significantly increased expression of chondrogenic marker BAPX1/NKX3.2 or a decreased expression of OA chondrocyte phenotypic markers ALP, MMP13, ADAMTS5, COX2, COL10A and RUNX2 in OA articular chondrocytes, in comparison to untreated OA articular chondrocytes.; [−] denotes the absence of a significant effort or a significantly decreased expression of chondrogenic marker BAPX1/NKX3.2 or an increased expression of OA chondrocyte phenotypic markers ALP, MMP13, ADAMTS5, COX2, COL10A and RUNX2 in OA articular chondrocytes, in comparison to untreated OA articular chondrocytes; conditions: for ADAMTS5 expression: Table 3, N- and C-terminally truncated peptides, vs untreated OA articular chondrocytes
[3] = test system: OA articular chondrocytes; test: as above; set-up: key: [+] denotes a significantly increased expression of chondrogenic marker BAPX1/NKX3.2 or a decreased expression of OA chondrocyte phenotypic markers ALP, MMP13, ADAMTS5, COX2, COL10A and RUNX2 in OA articular chondrocytes, in comparison to untreated OA articular chondrocytes.; [−] denotes the absence of a significant effort or a significantly decreased expression of chondrogenic marker BAPX1/NKX3.2 or an increased expression of OA chondrocyte phenotypic markers ALP, MMP13, ADAMTS5, COX2, COL10A and RUNX2 in OA articular chondrocytes, in comparison to untreated OA articular chondrocytes; conditions: Table 2 (FIGS. 2-8), peptide 10 nM, 24 hours, vs untreated OA articular chondrocytes
Experimental: (§1) The action of 20-mer peptides (10 nM) of SEQ ID NO: 2-15 (peptides with 1 amino acids intervals (19 amino acid overlap)) and SEQ ID NO:49 on the expression of the indicated genes was determined on a validated pool of passage 2 OA human articular chondrocytes (n=18) and compared to full-length recombinant BMP-7 (1 nM). Samples were harvested after 24 hours and analyzed for indicated genes by RT-qPCR (corrected for 28S rRNA expression and relative to control conditions (no peptide exposure)). In the graphs, numbers on the x-axis represent individual peptides according to their SEQ ID NO:, error bars represent mean±SEM, statistical differences were calculated (one-way ANOVA with bonferroni correction) to control condition. *=p<0.05 lower than control condition for COL10A1, ALP, RUNX2, COX-2, MMP13 and ADAMTS5 and higher than control condition for BAPX1/NKX3.2. Random peptide is a peptide according to SEQ ID NO: 49 with amino acid sequence […].

[4] = test system: OA articular chondrocytes; test: as above; set-up: key: [—] denotes the absence of a significant effect or a significantly decreased expression of chondrogenic marker BAPX1/NKX3.2 or an increased expression of OA chondrocyte phenotypic markers ALP, MMP13, ADAMTS5, COX2, COL10A and RUNX2 in OA articular chondrocytes, in comparison to untreated OA articular chondrocyts; conditions: Table 1, 20-mer peptides with native cysteines; vs untreated OA articular chondrocytes
Experimental: as §1

[5] = test system: OA articular chondrocytes; test: as above; set-up: key: [—] denotes the absence of a significant effect or a significantly decreased expression of chondrogenic marker BAPX1/NKX3.2 or an increased expression of OA chondrocyte phenotypic markers ALP, MMP13, ADAMTS5, COX2, COL10A and RUNX2 in OA articular chondrocytes, in comparison to untreated OA articular chondrocyts; conditions: Table 1, 20-mer peptides with native cysteines; vs untreated OA articular chondrocytes; remark: listed apart in the source
[6] = test system: Cartilage explants; test: Safranin-O staining of glycosaminoglycans in cartilage explants; conditions: 14 days; BMP-7 1 nM, SEQ ID NO: 8 10 nM; 2 patients
Experimental: Cartilage explants obtained from 2 patients were cultured for 14 days in the presence of BMP-7 (1 nM) or BMP-7 mimicking peptide […] (SEQ ID NO: 8) at 10 nM. Glycosaminoglycans (GAGs), an important component of the extracellular matrix (ECM), were stained with Safranin-O (in red) and other tissues are counterstained with Fast green (in green/blue).

[7] = test system: Cartilage explants from OA patient's knee cartilage; test: PGE2 levels via ELISA in cartilage explants; conditions: 14 days; BMP-7 1 nM, peptides 10 nM
Experimental: Cartilage explants of 3 mm^2 were taken from OA patient's knee cartilage (n=6) and treated with BMP-7 (1 nM), with peptide […] (SEQ ID NO: 8) at 10 nM or a scrambled irrelevant control peptide (10 nM) for 14 days. Prostaglandin E2 (PGE2) levels, a pro-hypertrophic factor, were determined via an ELISA.

[8] = test system: Synovial tissue, Hoffa's fat pad tissue and meniscus tissue samples from OA patients; test: PGE2 levels via ELISA in synovial, Hoffa's fat pad and meniscus tissue samples; conditions: 24 h; BMP-7 1 nM, peptides 10 nM
Experimental: Synovial tissue samples from OA patients (n=6) were treated with BMP-7 (1 nM), with peptide […] (SEQ ID NO: 8) at 10 nM or a scrambled irrelevant control peptide (10 nM) for 24 h. PGE2 levels were determined via an ELISA.
Hoffa's fat pad tissue samples from OA patients (n=6) were treated with BMP-7 (1 nM) with peptide […] (SEQ ID NO: 8) at 10 nM or a scrambled irrelevant control peptide (10 nM) for 24 h. PGE2 levels were determined via an ELISA.
Meniscus tissue samples from OA patients (n=6) were treated with BMP-7 (1 nM) with peptide […] (SEQ ID NO: 8) at 10 nM or a scrambled irrelevant control peptide (10 nM) for 24 h. PGE2 levels were determined via an ELISA.

[9] = test system: Isolated chondrocytes from OA patients; test: Treatment of isolated chondrocytes from OA patients, gene expression via qRT-PCR; conditions: 1 nM, 24 h, n=6
Experimental: Isolated chondrocytes from OA patients (n=6) were treated with BMP-7 (1 nM) or the 12-mer peptide according to SEQ ID NO: 16 (1 nM) for 24 h. Pro-chondrogenic (FIG. 9A) and hypertrophic (FIGS. 9B, 9C and 9D) gene expression was determined via qRT-PCR and normalized for 28S rRNA levels.

[10] = test system: cartilage explants from OA patient's knee articular cartilage; test: Treatment of cartilage explants, hypertrophic gene expression via qRT-PCR; conditions: BMP-7 1 nM, SEQ ID NO: 16 10 nM, 24 h
Experimental: 4 mm2 cartilage explants were taken from non-lesion areas of OA patient's knee articular cartilage (n=5) and randomly assigned to different experimental treatment conditions (4 explants per treatment group). After a 24 h equilibration period the explants were treated with BMP-7 (1 nM) or the 12-mer peptide according to SEQ ID NO: 16 (10 nM) for 24 h. Hypertrophic gene expression was determined via qRT-PCR and normalized for 28S rRNA levels. After treatment with BMP-7 or the 12 mer we observed a downregulation of pro-hypertrophic genes, such as Col10a1 (FIG. 10A) and MMP13 (FIG. 10B).

[11] = Table 3, N- and C-terminally truncated peptides

Substance: 16 (YSEGESAFPLNS; homo sapiens) [compound 16]
- MMP13 expression ([1]; Table 2 (FIGS. 2-8), peptide 10 nM, 24 hours): +
- ALP expression [1, 11]: +
- BAPX1/NKX3.2 expression [1, 11]: +
- COL10A expression [1, 11]: +
- COX-2 expression [1, 11]: +
- RUNX2 expression [1, 11]: +
- ADAMTS5 expression [2]: +
- ADAMTS5 expression [3]: +
- ALP expression [3]: +
- BAPX1/NKX3.2 expression [3]: +
- COL10A expression [3]: +
- COX-2 expression [3]: +
- RUNX2 expression [3]: +

Substance: 36 (EGYAAYYSEGESAFPLNSYMNATNHA; homo sapiens) [compound 36]
- ALP expression [1, 11]: +
- BAPX1/NKX3.2 expression [1, 11]: +
- COL10A expression [1, 11]: +
- COX-2 expression [1, 11]: +
- MMP13 expression [1, 11]: +
- RUNX2 expression [1, 11]: +
- ADAMTS5 expression [2]: +

Substance: 38 (EALRMANVAENSSSDQRQAC; homo sapiens) [compound 38]
- ADAMTS5 expression [4]: —
- ALP expression [5]: —
- BAPX1/NKX3.2 expression [5]: —
- COL10A expression [5]: —
- COX-2 expression [5]: —
- MMP13 expression [5]: —
- RUNX2 expression [5]: —

Substance: 39 (ACKKHELYVSFRDLGWQDWI; homo sapiens) [compound 39]
- ADAMTS5 expression [4]: —
- ALP expression [5]: —
- BAPX1/NKX3.2 expression [5]: —
- COL10A expression [5]: —
- COX-2 expression [5]: —
- MMP13 expression [5]: —
- RUNX2 expression [5]: —

Substance: 40 (WIIAPEGYAAYYCEGECAFP; homo sapiens) [compound 40]
- ADAMTS5 expression [4]: —
- ALP expression [5]: —
- BAPX1/NKX3.2 expression [5]: —
- COL10A expression [5]: —
- COX-2 expression [5]: —
- MMP13 expression [5]: —
- RUNX2 expression [5]: —

Substance: 41 (FPLNSYMNATNHAIVQTLVH; homo sapiens) [compound 41]
- ADAMTS5 expression [4]: —
- ALP expression [5]: —
- BAPX1/NKX3.2 expression [5]: —
- COL10A expression [5]: —
- COX-2 expression [5]: —
- MMP13 expression [5]: —
- RUNX2 expression [5]: —

Substance: 42 (VHFINPETVPKPCCAPTQLN; homo sapiens) [compound 42]
- ADAMTS5 expression [4]: —
- ALP expression [5]: —
- BAPX1/NKX3.2 expression [5]: —
- COL10A expression [5]: —
- COX-2 expression [5]: —
- MMP13 expression [5]: —
- RUNX2 expression [5]: —

Substance: 43 (LNAISVLYFDDSSNVILKKY; homo sapiens) [compound 43]
- ADAMTS5 expression [4]: —
- ALP expression [5]: —
- BAPX1/NKX3.2 expression [5]: —
- COL10A expression [5]: —
- COX-2 expression [5]: —
- MMP13 expression [5]: —
- RUNX2 expression [5]: —

Substance: 44 (SSNVILKKYRNMVVRACGCH; homo sapiens) [compound 44]
- ADAMTS5 expression [4]: —
- ALP expression [5]: —
- BAPX1/NKX3.2 expression [5]: —
- COL10A expression [5]: —
- COX-2 expression [5]: —
- MMP13 expression [5]: —
- RUNX2 expression [5]: —

Substance: GYAAYYSEGESAFPLNSYMN (homo sapiens) [SEQ ID NO: 8]
- Safranin-O intensity (GAGs) compared to control [6]: increased Safranin-O intensity
- suppression of the OA chondrocyte phenotype ([2]; independent of the tested concentration (1000, 100, 10 and 1 nM were tested)): efficiently suppressed
- PGE2 levels in the cartilage [7]: reduce PGE2 levels
- PGE2 levels in the surrounding tissues (synovial, Hoffa's fat pad, meniscus) [8]: reduce PGE2 levels

Substance: YSEGESAFPLNS (homo sapiens) [SEQ ID NO: 16]
- COL10A1 gene expression (pro-hypertrophic) [9]: downregulation
- COX-2 gene expression (pro-hypertrophic) [9]: downregulation
- Col2a1 gene expression (pro-chondrogenic) [9]: upregulation
- RUNX2 gene expression (pro-hypertrophic) [9]: downregulation
- Col10a1 gene expression [10]: downregulation
- MMP13 gene expression [10]: downregulation
